According to ChEMBL document CHEMBL4610033, “(1-4)-Thiodisaccharides as anticancer agents. Part 5. Evaluation of anticancer activity and investigation of mechanism of action” (Bioorg Med Chem Lett, 2020):
Calls of active or inactive are those of the source. The calls are words filed in the database; no cut-off is given here.

What was measured:
U-87 MG [1] = experiment: Antiproliferative activity against human U87 cells assessed as reduction in cell viability after 14 hrs by CCK8 assay; assay type: functional, cell-based, U-87MG ATCC
[2] = Antiproliferative activity against human H7PX cells assessed as reduction in cell viability after 14 hrs by CCK8 assay; assay type: functional, cell-based
[3] = Anticlonogenic activity against human H7PX cells assessed as ratio of the number of colonies to the number of cells seeded at IC20 incubated for 14 days followed by replating and measured after 2 weeks by crystal violet staining based microscopic analysis (reference value: 100%); assay type: functional
U-87 MG [4] = experiment: Anticlonogenic activity against human U87 cells assessed as ratio of the number of colonies to the number of cells seeded at IC20 incubated for 14 days followed by replating and measured after 2 weeks by crystal violet staining based microscopic analysis (reference value: 100%); assay type: functional, U-87MG ATCC
[5] = Antiproliferative activity against human H6PX cells assessed as reduction in cell viability after 14 hrs by CCK8 assay; assay type: functional, cell-based
[6] = Anticlonogenic activity against human H6PX cells assessed as ratio of the number of colonies to the number of cells seeded at IC20 incubated for 14 days followed by replating and measured after 2 weeks by crystal violet staining based microscopic analysis (reference value: 100%); assay type: functional
U-87 MG [7] = experiment: Induction of endoplasmic reticulum stress in human U87 cells assessed as GRP78 expression at IC20 after 2 hrs by ELISA relative to control; assay type: functional, U-87MG ATCC
U-87 MG [8] = experiment: Induction of apoptosis in human U87 cells assessed as apoptotic cells at IC20 after 4 hrs by AnnexinV-FITC/PI staining based flow cytometry analysis (reference value: 6.9%); assay type: functional, U-87MG ATCC
[9] = Induction of apoptosis in human H7PX cells assessed as reduction in bcl2 gene expression at IC20 after 4 hrs by RT-PCR analysis relative to untreated control; assay type: functional
U-87 MG [10] = experiment: Induction of apoptosis in human U87 cells assessed as viable cells at IC20 after 4 hrs by AnnexinV-FITC/PI staining based flow cytometry analysis (reference value: 93.1%); assay type: functional, U-87MG ATCC
U-87 MG [11] = experiment: Induction of apoptosis in human U87 cells assessed as increase in FASLG gene expression at IC20 after 4 hrs by RT-PCR analysis relative to untreated control; assay type: functional, U-87MG ATCC
[12] = Induction of apoptosis in human H6PX cells assessed as increase in FASLG gene expression at IC20 after 4 hrs by RT-PCR analysis relative to untreated control; assay type: functional
U-87 MG [13] = experiment: Induction of endoplasmic reticulum stress in human U87 cells assessed as EDEM expression at IC20 after 1 hr by ELISA relative to control; assay type: functional, U-87MG ATCC
Homo sapiens [14] = species on record: Homo sapiens; experiment: Inhibition of TrxR in human […] cells assessed as reduction in intracellular thiol levels at IC20 after 1 hr by DNTB reagent based assay relative to control; assay type: cell-based; design: scale not given: the % may be the effect or the level left
U-87 MG [15] = experiment: Inhibition of protein synthesis in human U87 cells at IC20 for 14 hrs in presence of labeled methionine by fluorescence microscopic analysis; assay type: functional, cell-based; conditions: U-87MG ATCC
[16] = Induction of apoptosis in human H6PX cells assessed as apoptotic cells at IC20 after 4 hrs by AnnexinV-FITC/PI staining based flow cytometry analysis (reference value: 9.7%); assay type: functional
U-87 MG [17] = experiment: Induction of endoplasmic reticulum stress in human U87 cells assessed as EDEM expression at IC20 after 2 hrs by ELISA relative to control; assay type: functional, U-87MG ATCC
U-87 MG [18] = experiment: Induction of endoplasmic reticulum stress in human U87 cells assessed as DDIT3 expression at IC20 after 2 hrs by ELISA relative to control; assay type: functional, U-87MG ATCC
[19] = Drug accumulation in human U87 cells after 2 hrs by microbeta liquid scintillation counting analysis; assay type: ADME, cell-based; conditions: u-87mg atcc
U-87MG ATCC [20] = experiment: Inhibition of TrxR in human U87 cells at IC20 incubated for 1 hr and measured after 4 hrs by TRFS-GREEN dye based fluorescence microscopic analysis; assay type: cell-based
U-87 MG [21] = experiment: Induction of endoplasmic reticulum stress in human U87 cells assessed as DDIT3 expression at IC20 after 1 hr by ELISA relative to control; assay type: functional, U-87MG ATCC
Homo sapiens [22] = species on record: Homo sapiens; experiment: Inhibition of TrxR in human H7PX cells at IC20 incubated for 1 hr and measured after 4 hrs by TRFS-GREEN dye based fluorescence microscopic analysis; assay type: cell-based
Homo sapiens [23] = species on record: Homo sapiens; experiment: Inhibition of TrxR in human H7PX cells at IC20 incubated for 1 hr and measured up to 4 hrs by DNTB-reagent based colorimetric assay; assay type: cell-based
U-87MG ATCC [24] = experiment: Inhibition of TrxR in human U87 cells assessed as reduction in intracellular thiol levels at IC20 after 1 hr by DNTB reagent based assay relative to control; assay type: cell-based; design: scale not given: the % may be the effect or the level left
[25] = Drug uptake in human U87 cells after 2 hrs by microbeta liquid scintillation counting analysis; assay type: ADME, cell-based; conditions: u-87mg atcc
U-87 MG [26] = experiment: Induction of endoplasmic reticulum stress in human U87 cells assessed as PDIA4 expression at IC20 after 2 hrs by ELISA relative to control; assay type: functional, U-87MG ATCC
Homo sapiens [27] = species on record: Homo sapiens; experiment: Inhibition of TrxR in human H6PX cells at IC20 incubated for 1 hr and measured up to 4 hrs by DNTB-reagent based colorimetric assay; assay type: cell-based
Homo sapiens [28] = species on record: Homo sapiens; experiment: Inhibition of protein synthesis in human H6PX cells at IC20 for 14 hrs in presence of labeled methionine by fluorescence microscopic analysis; assay type: functional, cell-based
[29] = Induction of apoptosis in human H7PX cells assessed as apoptotic cells at IC20 after 4 hrs by AnnexinV-FITC/PI staining based flow cytometry analysis (reference value: 9.6%); assay type: functional
Homo sapiens [30] = species on record: Homo sapiens; experiment: Inhibition of protein synthesis in human H7PX cells at IC20 for 14 hrs in presence of labeled methionine by fluorescence microscopic analysis; assay type: functional, cell-based
U-87 MG [31] = experiment: Induction of endoplasmic reticulum stress in human U87 cells assessed as GRP78 expression at IC20 after 1 hr by ELISA relative to control; assay type: functional, U-87MG ATCC
[32] = Induction of apoptosis in human H6PX cells assessed as viable cells at IC20 after 4 hrs by AnnexinV-FITC/PI staining based flow cytometry analysis (reference value: 90.3%); assay type: functional
U-87 MG [33] = experiment: Induction of apoptosis in human U87 cells assessed as reduction in bcl2 gene expression at IC20 after 4 hrs by RT-PCR analysis relative to untreated control; assay type: functional, U-87MG ATCC
[34] = Induction of apoptosis in human H7PX cells assessed as increase in FASLG gene expression at IC20 after 4 hrs by RT-PCR analysis relative to untreated control; assay type: functional
U-87 MG [35] = experiment: Induction of endoplasmic reticulum stress in human U87 cells assessed as DNAJC3 expression at IC20 after 2 hrs by ELISA relative to control; assay type: functional, U-87MG ATCC
U-87 MG [36] = experiment: Induction of ROS generation in human U87 cells at IC20 incubated for 1 hr by CM-H2DCFDA staining based microplate reader analysis; assay type: functional, cell-based; conditions: U-87MG ATCC
U-87MG ATCC [37] = experiment: Inhibition of TrxR in human U87 cells at IC20 incubated for 1 hr and measured up to 4 hrs by DNTB-reagent based colorimetric assay; assay type: cell-based
U-87 MG [38] = experiment: Induction of endoplasmic reticulum stress in human U87 cells assessed as DNAJC3 expression at IC20 after 1 hr by ELISA relative to control; assay type: functional, U-87MG ATCC
U-87 MG [39] = experiment: Induction of endoplasmic reticulum stress in human U87 cells assessed as PDIA4 expression at IC20 after 1 hr by ELISA relative to control; assay type: functional, U-87MG ATCC
Homo sapiens [40] = species on record: Homo sapiens; experiment: Inhibition of TrxR in human H6PX cells at IC20 incubated for 1 hr and measured after 4 hrs by TRFS-GREEN dye based fluorescence microscopic analysis; assay type: cell-based
[41] = Induction of apoptosis in human H6PX cells assessed as reduction in bcl2 gene expression at IC20 after 4 hrs by RT-PCR analysis relative to untreated control; assay type: functional
[42] = Induction of apoptosis in human H7PX cells assessed as viable cells at IC20 after 4 hrs by AnnexinV-FITC/PI staining based flow cytometry analysis (reference value: 90.4%); assay type: functional
Homo sapiens [43] = species on record: Homo sapiens; experiment: Inhibition of TrxR in human H6PX cells assessed as reduction in intracellular thiol levels at IC20 after 1 hr by DNTB reagent based assay relative to control; assay type: cell-based; design: scale not given: the % may be the effect or the level left

Structure (SMILES): O=C(O)c1ccccc1S[C@@H]1CC(=O)[C@@H]2OC[C@H]1O2
- IC20 (U-87 MG [1]): 784 µM
- IC50 (U-87 MG [1]): 922 µM
- IC20 [2]: 654 µM
- IC50 [2]: 736 µM
- Activity [3]: 98%
- Activity (U-87 MG [4]): 86%
- IC20 [5]: 922 µM
- IC50 [5]: 955 µM
- Activity [6]: 75%

Structure (SMILES): CC(=O)OC[C@H]1O[C@@H](S[C@@H]2CC(=O)[C@@H]3OC[C@H]2O3)[C@H](OC(C)=O)[C@@H](OC(C)=O)[C@@H]1OC(C)=O
- fold change (FC) (U-87 MG [7]): 1.38
- Activity (U-87 MG [8]): 62.2%
- fold change (FC) [9]: -0.69
- Activity (U-87 MG [10]): 37.8%
- fold change (FC) (U-87 MG [11]): 3.25
- fold change (FC) [12]: 4.46
- fold change (FC) (U-87 MG [13]): 2.39
- Activity (Homo sapiens [14]): 19.7%
- inhibition (U-87 MG [15]): Active
- IC20 (U-87 MG [1]): 51.4 µM
- IC50 (U-87 MG [1]): 65.2 µM
- Activity [16]: 80.4%
- fold change (FC) (U-87 MG [17]): 1.1
- IC20 [2]: 134 µM
- IC50 [2]: 158 µM
- fold change (FC) (U-87 MG [18]): 0.11
- Drug uptake [19]: Not Active
- Activity [3]: 63%
- Activity (U-87 MG [4]): 40%
- inhibition (U-87MG ATCC [20]): Active
- IC20 [5]: 113 µM
- IC50 [5]: 133 µM
- fold change (FC) (U-87 MG [21]): 7.01
- inhibition (Homo sapiens [22]): Active
- inhibition (Homo sapiens [23]): Active
- Activity (U-87MG ATCC [24]): 11.8%
- Drug uptake [25]: Active
- fold change (FC) (U-87 MG [26]): 1.24
- Activity [6]: 46%
- inhibition (Homo sapiens [27]): Active
- inhibition (Homo sapiens [28]): Active
- Activity [29]: 43.3%
- inhibition (Homo sapiens [30]): Active
- fold change (FC) (U-87 MG [31]): 1.81
- Activity [32]: 19.6%
- fold change (FC) (U-87 MG [33]): -0.35
- fold change (FC) [34]: 6.12
- fold change (FC) (U-87 MG [35]): 2.43
- Activity (U-87 MG [36]): Active
- inhibition (U-87MG ATCC [37]): Active
- fold change (FC) (U-87 MG [38]): 1.07
- fold change (FC) (U-87 MG [39]): 1.9
- inhibition (Homo sapiens [40]): Active
- fold change (FC) [41]: -0.4
- Activity [42]: 56.7%
- Activity (Homo sapiens [43]): 22.3%
